The values below come from patent US20190284136A1, “INDOLINE DERIVATIVES” (ViiV HEALTHCARE UK LIMITED, priority 2016, published 2019).

Structures are written as SMILES.

For this experiment, the system named is HIV. As to the kind of experiment: Table 1 IC50 of the examples (assay method not given; patent concerns inhibiting HIV replication). Format: cell-based. The following applies: Human immunodeficiency virus 1.
For orientation: IC50 means the concentration at which inhibition is half-maximal. A high value points to weaker potency in that assay. Regarding `COc1cc(F)ccc1C(=O)N1CCc2c1cc(C)c([C@H](OC(C)(C)C)C(=O)O)c2-c1ccc(C)cc1` [Example 21, (S)-2-(tert-Butoxy)-2-(1-(4-fluoro-2-methoxybenzoyl)-6-methyl-4-(p-tolyl)indolin-5-yl)acetic acid], the IC50 was determined as 9 nM.

Compound `Cc1cc2c(c(-c3cc(F)c4c(c3C)CCCO4)c1[C@H](OC(C)(C)C)C(=O)O)CCN2C(=O)c1ccccc1C(F)(F)F` (atropisomer, axis not shown) [Example 125, (S)-2-(tert-Butoxy)-2-((R)-4-(8-fluoro-5-methylchroman-6-yl)-6-methyl-1-(2-(trifluoromethyl)benzoyl)indolin-5-yl)acetic acid] came in with an IC50 of 5 nM.

For the compound `Cc1cc2c(c(-c3cc(F)c4c(c3C)CCCO4)c1[C@H](OC(C)(C)C)C(=O)O)CCN2C(=O)c1cc(F)ccc1Cl` (atropisomer, axis not shown) [Example 150, (S)-2-(tert-Butoxy)-2-((R)-1-(2-chloro-5-fluorobenzoyl)-4-(8-fluoro-5-methylchroman-6-yl)-6-methylindolin-5-yl)acetic acid], the IC50 is 8 nM.

As for `Cc1ccc(-c2c3c(cc(C)c2[C@H](OC(C)(C)C)C(=O)O)N(C(=O)c2cccc(F)c2F)CC3)cc1` [Example 43, (S)-2-(tert-Butoxy)-2-(1-(2,3-difluorobenzoyl)-6-methyl-4-(p-tolyl)indolin-5-yl)acetic acid], the IC50 amounted to 10 nM.

In turn, `Cc1cc2c(c(-c3cc(F)c4c(c3C)CCCO4)c1[C@H](OC(C)(C)C)C(=O)O)CCN2C(=O)c1cc(F)cc(F)c1` (atropisomer, axis not shown) [Example 57, (S)-2-(tert-Butoxy)-2-((R)-1-(3,5-difluorobenzoyl)-4-(8-fluoro-5-methylchroman-6-yl)-6-methylindolin-5-yl)acetic acid] returned an IC50 of 2 nM.

With `Cc1cc2c(c(-c3cc(F)c4c(c3C)CCCO4)c1[C@H](OC(C)(C)C)C(=O)O)CCN2C(=O)c1ccc(Cl)c(F)c1` (atropisomer, axis not shown) [Example 56, (S)-2-(tert-Butoxy)-2-((R)-1-(4-chloro-3-fluorobenzoyl)-4-(8-fluoro-5-methylchroman-6-yl)-6-methylindolin-5-yl)acetic acid], half-maximal inhibition (IC50) was put at 2 nM.

Take `COc1ccc(C(=O)N2CCc3c2cc(C)c([C@H](OC(C)(C)C)C(=O)O)c3-c2ccc3c(c2C)CCCO3)cc1C` (atropisomer, axis not shown) [Example 190, (S)-2-(tert-Butoxy)-2-((R)-1-(4-methoxy-3-methylbenzoyl)-6-methyl-4-(5-methylchroman-6-yl)indolin-5-yl)acetic acid]: the concentration for half-maximal inhibition (IC50) was found to be 124 nM.

In turn, `Cc1ccc(-c2c3c(cc(C)c2[C@H](OC(C)(C)C)C(=O)O)N(C(=O)c2ccc(F)cc2)CC3)cc1` [Example 14, (S)-2-(tert-Butoxy)-2-(1-(4-fluorobenzoyl)-6-methyl-4-(p-tolyl)indolin-5-yl)acetic acid] had an IC50 of 7 nM.
